What was measured:
PRMT5 = target: T1, PRMT5 (Homo sapiens, UniProt O14744); experiment: PRMT5 Enzymatic Inhibition Assay (chemiluminescence immunoassay of histone H4 methylation); format: biochemical; conditions: 1 hour at room temperature; 10 μM to 1 nM
T1 construct: purchased BPS Biosciences 52002L
Experimental: A chemiluminescence immunoassay (CLIA) measuring the amount of PRMT5-mediated histone methylation was performed in a 96-well plate format according to the manufacturer's protocol (BPS Biosciences, Cat #52002L). A 96-well plate precoated with histone H4 peptide was rehydrated prior to use. A master mix containing PRMT5 substrate S-adenosylmethionine, reaction buffer, and purified PRMT5 enzyme was added to create reaction-competent wells. Wells lacking either S-adenosylmethionine substrate or PRMT5 enzyme were created as negative controls. 10 test concentrations, ranging from 100 μM to 10 nM, of the test compound were prepared using a 1:3 serial dilution in dH2O. 5 μL of each test concentration was added into a reaction-competent well. 5 μL of a 1% DMSO aqueous solution lacking inhibitor was added into negative control wells and into a reaction-competent well, creating a positive control well. The final reaction volume in each well was 50 μL, and the final concentration of the test compound in each well ranged from 10 μM to 1 nM. A known inhibitor of PRMT5, EPZ015666, was tested in parallel reaction wells as an assay validation control. The 96-well plate was incubated for 1 hour at room temperature.
Upon completion of the incubation, the reaction supernatant in each well was discarded. Wells were washed with 1×TBST and incubated in blocking buffer for 1 hour. The wells were incubated with a primary antibody recognizing methylated Arg3 residues on Histone H4 for 1 hour. The wells were washed with 1×TBST again and subsequently incubated with an HRP-conjugated secondary antibody for 30 minutes. The wells were washed again with 1×TBST, and equal parts of the chemiluminescence reagents were added into each well. Quantification of luminescence was measured in a plate reader.
Luminescence values were normalized against the positive and negative controls to convert the data into % PRMT5 activity. An inhibitor concentration-dependent curve was plotted against % PRMT5 activity and am IC50 value was determined for each compound.

[1] = tested on: drug-sensitive cell lines of Table 4; experiment: Cell Line Growth Retardation Assay, average maximum effect in sensitive cohort; format: cell-based, Human; conditions: average maximum growth inhibition over sensitive cohort of Table 4; 6 days; up to 1 μM
Experimental: (§1) Cells were seeded at densities of 1,000-5,000 cells per well in 48-well tissue culture plates. After a 24 h rest period, cells were treated with compound at 1 μM, 0.2 μM, 0.04 μM, 0.008 μM, 0.0016 μM, and 0.00032 μM. A group of cells were treated with the vehicle in which the compound was prepared and served as a control. Prior to treatment, cells were counted and this count was used as a baseline for the calculation of growth inhibition. The cells were grown in the presence of compounds for 6 days and were counted on day 6. All cell counting was performed using a Synentec Cellavista plate imager. Growth inhibition was calculated as a ratio of cell population doublings in the presence of compound versus the absence of compound and expressed as the maximum percentage growth inhibition achieved across the range of tested concentrations of the compound (“maximum effect” or “ME”) calculated by fitting curves to data points from each dose-response assay using the Proc NLIN function in SAS for Windows version 9.2 (SAS Institute, Inc.).
(§2) Human cancer cell lines were grouped as “sensitive” or “resistant” to PRMT5 inhibition based on whether their growth was retarded by JNJ-64619178 (i.e., (1S,2R,3R,5R)-3-(2-(2-amino-3-bromoquinolin-7-yl)ethyl)-5-(4-amino-7H-pyrrolo[2,3-d]pyrimidin-7-yl)cyclopentane-1,2-diol) (data not shown; see Table 4). These sensitive and resistant cohorts were interrogated for response to each compound, and ME was calculated for each cell line using the same technique described above. Average MEs for the sensitive and resistant cohorts were calculated as arithmetic means of the group. “A” represents a percent of maximum effect of 60% or greater, “B” represents a percent of maximum effect of 30% to 59%, and “C” represents a percent of maximum effect of 29% or lower.

[2] = tested on: drug-resistant cell lines of Table 4; experiment: Cell Line Growth Retardation Assay, average maximum effect in resistant cohort; format: cell-based, Human; conditions: average maximum growth inhibition over resistant cohort of Table 4; 6 days; up to 1 μM
Experimental: as §1, §2

[3] = Caco-2 Assay (Papp A to B); format: in vitro ADME; conditions: human, pH 7.4
Experimental: The degree of bi-directional human intestinal permeability for compounds was estimated using a Caco-2 cell permeability assay. Caco-2 cells were seeded onto polyethylene membranes in 96-well plates. The growth medium was refreshed every 4 to 5 days until cells formed a confluent cell monolayer. HBSS with 10 mM HEPES at pH 7.4 was used as the transport buffer. Compounds were tested at 2 μM bi-directionally in duplicate. Digoxin, nadolol and metoprolol were included as standards. Digoxin was tested at 10 μM bi-directionally in duplicate, while nadolol and metoprolol were tested at 2 μM in the A to B direction in duplicate. The final DMSO concentration was adjusted to less than 1% for all experiments. The plate was incubated for 2 hours in a CO2 incubator at 37° C., with 5% CO2 at saturated humidity. After incubation, all wells were mixed with acetonitrile containing an internal standard, and the plate was centrifuged at 4,000 rpm for 10 minutes. 100 μL supernatant was collected from each well and diluted with 100 μL distilled water for LC/MS/MS analysis. Concentrations of test and control compounds in starting solution, donor solution, and receiver solution were quantified by LC/MS/MS, using peak area ratio of analyte/internal standard.
The apparent permeability coefficient Papp (cm/s) was calculated using the equation: Papp=(dCr/dt)×Vr/(A×C0), where dCr/dt is the cumulative concentration of compound in the receiver chamber as a function of time (μM/s); Vr is the solution volume in the receiver chamber (0.075 mL on the apical side, 0.25 mL on the basolateral side); A is the surface area for the transport, which is 0.0804 cm^2 for the area of the monolayer; and Co is the initial concentration in the donor chamber (μM). “A” represents a score of 1 or greater, “B” represents a score of 0.2 to 0.99, and “C” represents a score of less than 0.2.
The efflux ratio was calculated using the equation: Efflux Ratio=Papp(BA)/Papp(AB)
Percent recovery was calculated using the equation: % Recovery=100×[(Vr×Cr)+(Vd×Cd)]/(Vd×C0), where Vd is the volume in the donor chambers, which are 0.075 mL on the apical side and 0.25 mL on the basolateral side; and Cd and Cr are the final concentrations of transport compound in donor and receiver chambers, respectively. Measurement of Compound Metabolic Stability

[4] = Measurement of Compound Metabolic Stability in hepatocytes; format: in vitro ADME; conditions: mouse hepatocytes; for hepatocyte CLint at 1 μM: read-out: CLint (μL/min/10^6)
Experimental: The metabolic stability of compounds was determined in hepatocytes from human, mice and rats. Compounds were diluted to 5 μM in Williams' Medium E from 10 mM stock solutions. 10 μL of each compound was aliquoted into a well of a 96-well plate and reactions were started by aliquoting 40 μL of a 625,000 cells/mL suspension into each well. The plate was incubated at 37° C. with 5% CO2. At each corresponding time point, the reaction was stopped by quenching with ACN containing internal standards (IS) at a 1:3. Plates were shaken at 500 rpm for 10 min, and then centrifuged at 3,220×g for 20 minutes. Supernatants were transferred to another 96-well plate containing a dilution solution. Supernatants were analyzed by LC/MS/MS. The Half-lives (in minutes) and CLint values (in μL/min/10^6 cells) of example compounds, as measured in mouse hepatocytes, are presented in Table 3. […] For CLint, “A” represents greater than 100 μL/min/10^6 cells, “B” represents 50 to 100 μL/min/10^6 cells, and “C” represents less than 50 μL/min/10^6 cells.
The remaining percent of compound after incubation was calculated using the following equation: % Remaining Compound=Peak Area Ratios of Tested Compound vs. Internal Standard at End Point • Peak Area Ratios of Tested Compound vs. Internal Standard at Start Point Compound half-life and CLint were calculated using the following equations: Ct=C0*e^−k*t(first order kinetics); when […], t1/2=ln 2/k=0.693/k; and CLint=k/(1,000,000 cells/mL) Activity-Guided Selection of Inhibitors

T1 sequence (O14744 2-637 limits assumed): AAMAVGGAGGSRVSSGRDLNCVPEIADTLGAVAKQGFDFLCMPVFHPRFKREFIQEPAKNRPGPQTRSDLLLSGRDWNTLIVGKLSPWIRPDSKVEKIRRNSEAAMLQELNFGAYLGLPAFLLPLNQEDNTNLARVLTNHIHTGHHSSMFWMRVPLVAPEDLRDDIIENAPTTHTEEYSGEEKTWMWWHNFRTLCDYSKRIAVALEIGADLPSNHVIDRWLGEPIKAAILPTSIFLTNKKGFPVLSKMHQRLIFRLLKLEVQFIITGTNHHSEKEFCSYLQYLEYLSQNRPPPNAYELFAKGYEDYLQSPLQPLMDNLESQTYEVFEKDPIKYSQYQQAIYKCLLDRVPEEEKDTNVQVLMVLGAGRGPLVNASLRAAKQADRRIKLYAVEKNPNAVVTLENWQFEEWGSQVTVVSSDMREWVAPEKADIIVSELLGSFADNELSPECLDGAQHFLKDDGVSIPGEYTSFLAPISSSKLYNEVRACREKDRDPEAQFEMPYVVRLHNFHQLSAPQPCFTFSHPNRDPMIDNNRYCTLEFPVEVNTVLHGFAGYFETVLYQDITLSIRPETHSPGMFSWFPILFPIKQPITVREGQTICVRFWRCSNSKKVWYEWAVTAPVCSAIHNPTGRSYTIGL
T1 sequence (Q9BQA1 2-342 partner limits assumed): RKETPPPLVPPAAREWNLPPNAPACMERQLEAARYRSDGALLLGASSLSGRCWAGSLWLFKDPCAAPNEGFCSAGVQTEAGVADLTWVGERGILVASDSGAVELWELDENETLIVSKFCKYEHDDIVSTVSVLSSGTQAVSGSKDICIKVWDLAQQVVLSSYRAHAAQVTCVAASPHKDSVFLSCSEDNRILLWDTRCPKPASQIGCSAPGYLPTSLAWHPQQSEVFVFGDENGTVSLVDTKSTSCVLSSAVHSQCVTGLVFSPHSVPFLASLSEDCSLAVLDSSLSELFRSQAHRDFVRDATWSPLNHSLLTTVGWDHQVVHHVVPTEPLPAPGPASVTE

SMILES | IC50 (PRMT5) [nM] | AvgSens ME (%) [1] | AvgRes ME (%) [2] | Papp A→B at 2 h, 2 μM [3] [×10⁻⁶ cm/s] | half-life at 1 μM [4] [min] | hepatocyte CLint at 1 μM [4] [µL/min/1e6 cells]
Nc1nc2cc(C3C[C@@]4(CN3)C[C@@H](n3ccc5c(N)ncnc53)[C@H](O)[C@@H]4O)ccc2cc1Br (single isomer, unassigned) [Compound 8] | 101 to 500 | C (a percent of maximum effect of 29% or lower) | C (a percent of maximum effect of 29% or lower) | < 0.2 | – | –
Nc1nc2cc(C3C[C@@]4(CN3)C[C@@H](n3ccc5c(Cl)ncnc53)[C@H](O)[C@@H]4O)ccc2cc1Br (single isomer, unassigned) [Compound 9] | ≤ 100 | B (a percent of maximum effect of 30% to 59%) | C (a percent of maximum effect of 29% or lower) | < 0.2 | – | –
Nc1nc2cc(C3C[C@@]4(CO3)C[C@@H](n3ccc5c(Cl)ncnc53)[C@H](O)[C@@H]4O)ccc2cc1Br (stereo partly drawn) [Compound 17] | ≤ 100 | A (a percent of maximum effect of 60% or greater) | B (a percent of maximum effect of 30% to 59%) | 0.2 to 0.99 | 15 to 50 | 50 to 100
Cc1ncnc2c1ccn2[C@@H]1C[C@@]2(CO[C@@H](c3ccc4cc(Br)c(N)nc4c3)C2)[C@@H](O)[C@H]1O [Compound 19] | ≤ 100 | A (a percent of maximum effect of 60% or greater) | B (a percent of maximum effect of 30% to 59%) | ≥ 1 | > 50 | < 50
Nc1ccc2ccc([C@H]3C[C@@]4(CO3)C[C@@H](n3ccc5c(Cl)ncnc53)[C@H](O)[C@@H]4O)cc2n1 [Compound 20] | ≤ 100 | A (a percent of maximum effect of 60% or greater) | B (a percent of maximum effect of 30% to 59%) | – | < 15 | > 100
Nc1ccc2ccc([C@H]3C[C@@]4(CO3)C[C@@H](n3ccc5cncnc53)[C@H](O)[C@@H]4O)cc2n1 [Compound 21] | ≤ 100 | A (a percent of maximum effect of 60% or greater) | B (a percent of maximum effect of 30% to 59%) | – | < 15 | > 100
Nc1nc2cc([C@H]3C[C@@]4(CO3)C[C@@H](n3ccc5cncnc53)[C@H](O)[C@@H]4O)ccc2cc1Br [Compound 22] | ≤ 100 | A (a percent of maximum effect of 60% or greater) | B (a percent of maximum effect of 30% to 59%) | ≥ 1 | < 15 | > 100
CNc1ncnc2c1ccn2[C@@H]1C[C@@]2(CO[C@@H](c3ccc4cc(Br)c(N)nc4c3)C2)[C@@H](O)[C@H]1O [Compound 23] | ≤ 100 | A (a percent of maximum effect of 60% or greater) | B (a percent of maximum effect of 30% to 59%) | 0.2 to 0.99 | > 50 | < 50
CCNc1ncnc2c1ccn2[C@@H]1C[C@@]2(CO[C@@H](c3ccc4cc(Br)c(N)nc4c3)C2)[C@@H](O)[C@H]1O [Compound 24] | ≤ 100 | A (a percent of maximum effect of 60% or greater) | B (a percent of maximum effect of 30% to 59%) | ≥ 1 | 15 to 50 | 50 to 100
CCCNc1ncnc2c1ccn2[C@@H]1C[C@@]2(CO[C@@H](c3ccc4cc(Br)c(N)nc4c3)C2)[C@@H](O)[C@H]1O [Compound 26] | ≤ 100 | B (a percent of maximum effect of 30% to 59%) | B (a percent of maximum effect of 30% to 59%) | – | – | –
